Target: JAK1 (Homo sapiens, UniProt P23458)
Experiment: JAK Kinase Assay (JAK1, Caliper EZ Reader, fluoresceinated peptide)
Format: biochemical
Details: ATP 76.5 μM; JAK1 10 nM; 120 minutes at room temperature; read-out: JAK1 inhibition
Procedure: JAK Kinase Assay 384-well plates in the left foot butoxy measured progress. The final assay volume was 25 μL, 250 nL 100× compounds, 10 μL enzyme mix and 15 μL substrate mix (fluoresceinated peptide and ATP) in assay buffer (20 mM HEPES (pH 7.5), 10 mM MgCl2, […], 0.5 mM EGTA and 2 mM DTT) prepared as test compound. By mixing the JAK1 with substrates and test compounds to start the reaction. There action mixture was incubated for 120 minutes at room temperature, then added 30 μL stop buffer for each sample to terminate the reaction with 50 mM EDTA. After termination of the kinase reaction, the proportion of phosphorylated product was determined as a fraction of total peptide substrate using Caliper EZ Reader II. Inhibition data were calculated by comparison with 100% of the reaction mixture without enzyme inhibition and vehicle-only reaction mixture billion % inhibition compared. The final concentration of reagents in the assays is: ATP, 76.5 μM; JAK1 fluorescent peptide (5-FAM-EEPLYWSFPAKKK-CONH2), 3 μM; JAK1, 10 nM, and DMSO, 1%. Dose response curve were generated to determine the concentration required for IC50 of JAK activity.

Sequence of JAK1 (P23458 whole entry, species assumed): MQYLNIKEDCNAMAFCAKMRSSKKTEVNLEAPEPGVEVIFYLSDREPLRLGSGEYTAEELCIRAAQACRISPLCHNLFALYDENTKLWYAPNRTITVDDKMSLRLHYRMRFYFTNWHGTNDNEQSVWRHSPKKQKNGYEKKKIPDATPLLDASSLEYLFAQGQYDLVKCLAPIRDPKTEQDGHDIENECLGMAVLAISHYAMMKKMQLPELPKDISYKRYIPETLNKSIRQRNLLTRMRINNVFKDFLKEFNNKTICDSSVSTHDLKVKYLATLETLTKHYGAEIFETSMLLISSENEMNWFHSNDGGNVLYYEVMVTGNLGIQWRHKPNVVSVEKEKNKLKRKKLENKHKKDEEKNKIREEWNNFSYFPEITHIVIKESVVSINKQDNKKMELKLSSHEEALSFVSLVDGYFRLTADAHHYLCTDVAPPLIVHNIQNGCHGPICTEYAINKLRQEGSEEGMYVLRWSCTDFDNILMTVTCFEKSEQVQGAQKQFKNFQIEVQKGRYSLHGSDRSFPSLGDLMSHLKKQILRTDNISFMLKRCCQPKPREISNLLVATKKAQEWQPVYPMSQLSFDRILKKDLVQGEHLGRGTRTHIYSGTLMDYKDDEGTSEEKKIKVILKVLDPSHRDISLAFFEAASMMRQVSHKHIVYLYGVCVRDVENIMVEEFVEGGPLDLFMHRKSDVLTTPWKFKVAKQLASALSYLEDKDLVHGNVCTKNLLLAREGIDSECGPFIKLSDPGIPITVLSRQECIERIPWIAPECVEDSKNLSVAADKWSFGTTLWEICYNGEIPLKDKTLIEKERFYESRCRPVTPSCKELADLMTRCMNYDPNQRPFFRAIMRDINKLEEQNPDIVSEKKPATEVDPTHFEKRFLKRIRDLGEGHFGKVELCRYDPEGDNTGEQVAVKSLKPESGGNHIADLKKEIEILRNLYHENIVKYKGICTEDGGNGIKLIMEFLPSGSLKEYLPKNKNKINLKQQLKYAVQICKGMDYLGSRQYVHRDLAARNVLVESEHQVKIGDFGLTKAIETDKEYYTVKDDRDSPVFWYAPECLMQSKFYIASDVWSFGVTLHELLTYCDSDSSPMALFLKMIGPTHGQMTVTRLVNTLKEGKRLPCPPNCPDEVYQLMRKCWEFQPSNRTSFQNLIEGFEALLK

SMILES | IC50
CN(c1ncnc2[nH]ccc12)C1CC2(C1)CN(C(=O)c1cc(F)c(C#N)cc1F)C2 [Compound 51, 2,5-difluoro-4-(6-(methyl(7H-pyrrolo[2,3-d]pyrimidin-4-yl)amino)-2-azaspiro[3.3]heptane-2-carbonyl)benzonitrile] | 0.01 to 0.1 µM
CN(c1ncnc2[nH]ccc12)C1CC2(C1)CN(C(=O)c1cc(F)c(C#N)c(F)c1)C2 [Compound 52, 2,6-difluoro-4-(6-(methyl(7H-pyrrolo[2,3-d]pyrimidin-4-yl)amino)-2-azaspiro[3.3]heptane-2-carbonyl)benzonitrile] | 0.01 to 0.1 µM
Cc1cc(C(=O)N2CC3(CC(N(C)c4ncnc5[nH]ccc45)C3)C2)c(F)cc1C#N [Compound 54, 5-fluoro-2-methyl-4-(6-(methyl(7H-pyrrolo[2,3-d]pyrimidin-4-yl)amino)-2-azaspiro[3.3]heptane-2-carbonyl)benzonitrile] | 0.01 to 0.1 µM
CN(c1ncnc2[nH]ccc12)C1CC2(C1)CN(C(=O)c1cccc(F)c1F)C2 [Compound 55, (2,3-difluorophenyl)(6-(methyl(7H-pyrrolo[2,3-d]pyrimidin-4-yl)amino)-2-azaspiro[3.3]heptan-2-yl)methanone] | 0.01 to 0.1 µM
CN(c1ncnc2[nH]ccc12)C1CC2(C1)CN(C(=O)c1c(F)cc(C#N)cc1F)C2 [Compound 56, 3,5-difluoro-4-(6-(methyl(7H-pyrrolo[2,3-d]pyrimidin-4-yl)amino)-2-azaspiro[3.3]heptane-2-carbonyl)benzonitrile] | ≤ 0.01 µM
CN(c1ncnc2[nH]ccc12)C1CC2(C1)CN(C(=O)c1ccc(F)c(C#N)c1)C2 [Compound 57, 2-Fluoro-5-{6-[methyl-(7H-pyrrolo[2,3-d]pyrimidin-4-yl)-amino]-2-aza-spiro[3.3]heptane-2-carbonyl}-benzonitrile] | ≤ 0.01 µM
CN(c1ncnc2[nH]ccc12)C1CC2(C1)CN(C(=O)c1cc(F)cc(C#N)c1)C2 [Compound 58, 3-Fluoro-5-{6-[methyl-(7H-pyrrolo[2,3-d]pyrimidin-4-yl)-amino]-2-aza-spiro[3.3]heptane-2-carbonyl}-benzonitrile] | ≤ 0.01 µM
CN(c1ncnc2[nH]ccc12)C1CC2(C1)CN(C(=O)c1ccc(C#N)c(Cl)c1Cl)C2 [Compound 60, 2,3-Dichloro-4-{6-[methyl-(7H-pyrrolo[2,3-d]pyrimidin-4-yl)-amino]-2-aza-spiro[3.3]heptane-2-carbonyl}-benzonitrile] | ≤ 0.01 µM
CN(c1ncnc2[nH]ccc12)C1CC2(C1)CN(C(=O)c1ccc(F)c(C#N)c1F)C2 [Compound 61, 2,6-Difluoro-3-{6-[methyl-(7H-pyrrolo[2,3-d]pyrimidin-4-yl)-amino]-2-aza-spiro[3.3]heptane-2-carbonyl}-benzonitrile] | ≤ 0.01 µM
CN(c1ncnc2[nH]ccc12)C1CC2(C1)CN(C(=O)c1cc(F)c(F)c(C#N)c1)C2 [Compound 62, 2,3-Difluoro-5-{6-[methyl-(7H-pyrrolo[2,3-d]pyrimidin-4-yl)-amino]-2-aza-spiro[3.3]heptane-2-carbonyl}-benzonitrile] | 0.01 to 0.1 µM
CN(c1ncnc2[nH]ccc12)C1CC2(C1)CN(C(=O)c1cc(C#N)cc(F)c1F)C2 [Compound 63, 3,4-Difluoro-5-{6-[methyl-(7H-pyrrolo[2,3-d]pyrimidin-4-yl)-amino]-2-aza-spiro[3.3]heptane-2-carbonyl}-benzonitrile] | ≤ 0.01 µM
[2H]C([2H])([2H])N(c1ncnc2[nH]ccc12)C1CC2(C1)CN(C(=O)c1ccc(C#C)c(F)c1)C2 [Compound 64, (4-Ethynyl-3-fluoro-phenyl)-{6-[(methyl-d3)-(7H-pyrrolo[2,3-d]pyrimidin-4-yl)-amino]-2-aza-spiro[3.3]hept-2-yl}-methanone] | ≤ 0.01 µM
[2H]C([2H])([2H])N(c1ncnc2[nH]ccc12)C1CC2(C1)CN(C(=O)c1ccc(C#N)c(F)c1)C2 [Compound 65] | 0.01 to 0.1 µM
[2H]C([2H])([2H])N(c1ncnc2[nH]ccc12)C1CC2(C1)CN(C(=O)c1ccc(C#CC)c(F)c1)C2 [Compound 66] | ≤ 0.01 µM
[2H]C([2H])([2H])N(c1ncnc2[nH]ccc12)C1CC2(C1)CN(C(=O)c1ccc(C#N)c(F)c1F)C2 [Compound 67, 2,3-Difluoro-4-{6-[(methyl-d3)-(7H-pyrrolo[2,3-d]pyrimidin-4-yl)-amino]-2-aza-spiro[3.3]heptane-2-carbonyl}-benzonitrile] | ≤ 0.01 µM
COc1nsc(NC(=O)N2CC3(CC(N(C)c4ncnc5[nH]ccc45)C3)C2)n1 [Compound 70, N-(3-methoxy-1,2,4-thiadiazol-5-yl)-6-(methyl(7H-pyrrolo[2,3-d]pyrimidin-4-yl)amino)-2-azaspiro[3.3]heptane-2-carboxamide] | ≤ 0.01 µM

SMILES | IC50
CN(c1ncnc2[nH]ccc12)C1CC2(C1)CN(C(=O)c1ccc(S(N)(=O)=O)cc1)C2 [Compound 71, 4-(6-(methyl(7H-pyrrolo[2,3-d]pyrimidin-4-yl)amino)-2-azaspiro[3.3]heptane-2-carbonyl)benzenesulfonamide] | ≤ 0.01 µM
COCC(=O)N1CCC2(CCC(N(C)c3ncnc4[nH]ccc34)CC2)CC1 [Compound 72, 2-methoxy-1-(9-(methyl(7H-pyrrolo[2,3-d]pyrimidin-4-yl)amino)-3-azaspiro[5.5]undecan-3-yl)ethan-1-one] | 0.01 to 0.1 µM
COc1nsc(NC(=O)N2CCC3(CCC(N(C)c4ncnc5[nH]ccc45)CC3)CC2)n1 [Compound 74, N-(3-methoxy-1,2,4-thiadiazol-5-yl)-9-(methyl(7H-pyrrolo[2,3-d]pyrimidin-4-yl)amino)-3-azaspiro[5.5]undecane-3-carboxamide] | ≤ 0.01 µM
CN(c1ncnc2[nH]ccc12)C1CCC2(CC1)CCN(C(=O)OC(C)(C)C)CC2 [Compound 106, tert-butyl 9-(methyl(7H-pyrrolo[2,3-d]pyrimidin-4-yl)amino)-3-azaspiro[5.5]undecane-3-carboxylate] | 1 to 10 µM
CN(c1ncnc2[nH]ccc12)C1CCC2(CC1)CCN(C(=O)COc1ccccc1)CC2 [Compound 107, 1-(9-(methyl(7H-pyrrolo[2,3-d]pyrimidin-4-yl)amino)-3-azaspiro[5.5]undecan-3-yl)-2-phenoxyethan-1-one] | ≤ 0.01 µM
CN(c1ncnc2[nH]ccc12)C1CCC2(CC1)CCN(C(=O)OCC(F)(F)F)CC2 [Compound 108, 2,2,2-trifluoroethyl 9-(methyl(7H-pyrrolo[2,3-d]pyrimidin-4-yl)amino)-3-azaspiro[5.5]undecane-3-carboxylate] | 0.1 to 1 µM
CN(c1ncnc2[nH]ccc12)C1CCC2(CC1)CCN(C(=O)NCC(F)(F)F)CC2 [Compound 109, 9-(methyl(7H-pyrrolo[2,3-d]pyrimidin-4-yl)amino)-N-(2,2,2-trifluoroethyl)-3-azaspiro[5.5]undecane-3-carboxamide] | 0.01 to 0.1 µM
CNC(=O)N1CCC2(CCC(N(C)c3ncnc4[nH]ccc34)CC2)CC1 [Compound 110, N-methyl-9-(methyl(7H-pyrrolo[2,3-d]pyrimidin-4-yl)amino)-3-azaspiro[5.5]undecane-3-carboxamide] | 0.01 to 0.1 µM
CCN(CC)S(=O)(=O)N1CCC2(CCC(N(C)c3ncnc4[nH]ccc34)CC2)CC1 [Compound 111, N,N-diethyl-9-(methyl(7H-pyrrolo[2,3-d]pyrimidin-4-yl)amino)-3-azaspiro[5.5]undecane-3-sulfonamide] | ≥ 10 µM
CN(c1ncnc2[nH]ccc12)C1CCC2(CC1)CCN(C(=O)c1ccc(S(N)(=O)=O)cc1)CC2 [Compound 112, 4-(9-(methyl(7H-pyrrolo[2,3-d]pyrimidin-4-yl)amino)-3-azaspiro[5.5]undecane-3-carbonyl)benzenesulfonamide] | 0.01 to 0.1 µM
CN(c1ncnc2[nH]ccc12)C1CCC2(CC1)CCN(C(=O)CCS(N)(=O)=O)CC2 [Compound 113, 3-(9-(methyl(7H-pyrrolo[2,3-d]pyrimidin-4-yl)amino)-3-azaspiro[5.5]undecan-3-yl)-3-oxopropane-1-sulfonamide] | 1 to 10 µM
CN(c1ncnc2[nH]ccc12)C1CCC2(CC1)CCN(C(=O)COc1cc(F)cc(C#N)c1)CC2 [Compound 114, 3-fluoro-5-(2-(9-(methyl(7H-pyrrolo[2,3-d]pyrimidin-4-yl)amino)-3-azaspiro[5.5]undecan-3-yl)-2-oxoethoxy)benzonitrile] | ≤ 0.01 µM
CN(c1ncnc2[nH]ccc12)C1CCC2(CC1)CCN(C(=O)COc1ccc(C#N)cc1)CC2 [Compound 115, 4-(2-(9-(methyl(7H-pyrrolo[2,3-d]pyrimidin-4-yl)amino)-3-azaspiro[5.5]undecan-3-yl)-2-oxoethoxy)benzonitrile] | ≤ 0.01 µM
CN(c1ncnc2[nH]ccc12)C1CCC2(CC1)CCN(C(=O)COc1cccc(C#N)c1)CC2 [Compound 116, 3-(2-(9-(methyl(7H-pyrrolo[2,3-d]pyrimidin-4-yl)amino)-3-azaspiro[5.5]undecan-3-yl)-2-oxoethoxy)benzonitrile] | 0.01 to 0.1 µM
CN(c1ncnc2[nH]ccc12)C1CCC2(CC1)CCN(C(=O)COc1ccc(C#N)c(F)c1)CC2 [Compound 117, 2-fluoro-4-(2-(9-(methyl(7H-pyrrolo[2,3-d]pyrimidin-4-yl)amino)-3-azaspiro[5.5]undecan-3-yl)-2-oxoethoxy)benzonitrile] | 0.01 to 0.1 µM
CN(c1ncnc2[nH]ccc12)C1CCC2(CC1)CCN(C(=O)COc1ccc(C#N)c(F)c1F)CC2 [Compound 118, 2,3-difluoro-4-(2-(9-(methyl(7H-pyrrolo[2,3-d]pyrimidin-4-yl)amino)-3-azaspiro[5.5]undecan-3-yl)-2-oxoethoxy)benzonitrile] | 0.01 to 0.1 µM

Source: US11365188B2, “JAK inhibitors” (priority 2018, dated 2022)
